Measured values as given in patent US20120021434A1, “METHOD FOR TREATING B CELL REGULATED AUTOIMMUNE DISORDERS” (Synta Pharmaceuticals Corp., priority 2005, published 2012).

How the values were obtained:
Type in all cases: cell-based
IκBβ = experiment: Inducible degradation of IκBβ (Western blot and FACS); details: IFN-γ/LPS or IFN-γ/SAC, 500 nM, 30 min and 2 hrs
Method: IκB degradation is one of the steps in the signaling pathway of NF-κB dependent genes. The activity of Compound 50 in inducible degradation of IκBα and IκBβ was investigated in THP-1 cells using Western blot and FACS analysis. […] Similar results were observed from the Compound 50 pre-treatment samples in which Compound 50 was added 30 min before stimulation.

p65 = experiment: Nuclear p65 in PMA+ionomycin stimulated Jurkat T cells (immunoblot); details: 100 nM
c-Rel [1] = biological target: T1, c-Rel (Mus musculus, UniProt P15307); experiment: Immunoblot and densitometry of nuclear c-Rel in LPS/IFNγ-stimulated Raw264.7 cells; details: Raw264.7, LPS/IFNγ, immunoblot densitometry
T1 construct: nuclear extracts from RAW cells stimulated with LPS/IFNγ; endogenous in cells; host or cells: RAW264.7
Method: Methods: 20×10^6 Raw 264.7 cells were treated with either DMSO, LPS/IFNγ, or LPS/IFNγ/Compound 50. (LPS conc. 1 ug/ml f.c.; mouse IFNγ mouse 100 U/ml f.c, Compound 501 uM f.c). (LPS: Sigma Cat # L2654. Mouse IFNγ; Cat # R+D 485-MICF). Cells were pre-treated with Compound 50 for 30 min, then LPS/IFNγ was added. After 3 hrs, nuclear and cytoplasmic extracts were prepared according to the BD™ TransFactor Extraction Kit and user manual. Briefly, cells were washed in PBS, harvested and lysed in hypotonic lysis buffer on ice. Cells were then disrupted by drawing the cell suspension through a No. 27 gauge needle 10 times. Next, the cell suspension was centrifuged, and the cytoplasmic extract (supernatant) was collected. The nuclear pellet was then disrupted by resuspension in high salt extraction buffer and was drawn through the needle 10 times. […]
After treatment with Compound 50, nuclear extract and cytoplasmic extract were prepared from 20×10^6 Raw264.7 cells by using Extraction kits from BD Biosciences (Cat. 631921), and above for experimental details. […] Densitometry analysis was performed using Quantity One software from BioRad.
The reduction in c-RelDNA-binding activity correlated with a 40-50% reduction in the levels of nuclear c-Rel as detected by immunoblot analysis (see immunoblot FIG. 14 and densitometry FIG. 15). […]

c-Rel [2] = biological target: T2, c-Rel (Homo sapiens, UniProt Q04864); experiment: Nuclear c-Rel in PMA+ionomycin stimulated Jurkat T cells (immunoblot); details: 100 nM
T2 construct: a western blot assay of THP1 nuclear c-Rel, p50 and p65 proteins was carried out; endogenous in cells; host or cells: THP-1; Jurkat
T2 sequence (Q04864 1-619): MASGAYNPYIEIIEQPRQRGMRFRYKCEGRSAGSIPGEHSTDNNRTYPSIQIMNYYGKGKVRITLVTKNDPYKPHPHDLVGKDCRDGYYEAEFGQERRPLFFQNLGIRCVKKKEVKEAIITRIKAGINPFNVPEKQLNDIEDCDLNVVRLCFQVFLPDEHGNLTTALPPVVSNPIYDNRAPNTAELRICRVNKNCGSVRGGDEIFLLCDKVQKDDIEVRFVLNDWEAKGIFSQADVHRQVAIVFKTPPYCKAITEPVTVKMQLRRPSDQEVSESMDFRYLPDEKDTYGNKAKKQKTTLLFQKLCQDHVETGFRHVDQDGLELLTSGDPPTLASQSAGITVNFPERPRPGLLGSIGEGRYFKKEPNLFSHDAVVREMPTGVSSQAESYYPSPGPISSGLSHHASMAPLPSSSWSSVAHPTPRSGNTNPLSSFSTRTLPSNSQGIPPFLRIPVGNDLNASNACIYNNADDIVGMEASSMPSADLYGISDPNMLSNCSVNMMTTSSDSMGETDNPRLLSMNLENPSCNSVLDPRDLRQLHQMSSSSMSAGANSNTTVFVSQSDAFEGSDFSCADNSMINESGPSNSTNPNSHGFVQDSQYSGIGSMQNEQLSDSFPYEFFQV
Text: We therefore examined the accumulation of nuclear c-Rel in these cells by immunoblot analysis.

NF-κB p65 = experiment: Kinetics of p65 nuclear translocation in LPS-stimulated THP1 cells (immunoblot, densitometry); details: 100 nM
Method: Compound 50 impairs nuclear accumulation of c-Rel and slightly reduces nuclear accumulation of p50. We examined the nuclear translocation kinetics of NF-κB family members in LPS stimulated cells treated with Compound 50. THP1 cells were stimulated with LPS in either the presence or absence of 100 nM Compound 50, and the distribution of the NF-κB Rel family members was determined by immunoblotting nuclear (n.p.) extracts collected at 5 min, 15 min, 30 min, 1 h, 3 h and 6 h post-treatment. In response to LPS stimulation, p50 translocated into the nucleus as early as 5 minutes post-stimulation and accumulates as time goes on (FIG. 4, immunoblots and FIG. 5 densitometry). […] The experiment examining p65 nuclear translocation is shown in FIG. 6 (immunoblots) and FIG. 7 (densitometry). In LPS stimulated cells, p65 translocated into the nucleus as early as 5 minutes post-stimulation and accumulated to maximum levels at 15-30 minutes post-stimulation. Treatment of LPS-stimulated cells with Compound 50 had no effect on the kinetics of p65 nuclear entry.

T1 sequence (P15307 whole entry): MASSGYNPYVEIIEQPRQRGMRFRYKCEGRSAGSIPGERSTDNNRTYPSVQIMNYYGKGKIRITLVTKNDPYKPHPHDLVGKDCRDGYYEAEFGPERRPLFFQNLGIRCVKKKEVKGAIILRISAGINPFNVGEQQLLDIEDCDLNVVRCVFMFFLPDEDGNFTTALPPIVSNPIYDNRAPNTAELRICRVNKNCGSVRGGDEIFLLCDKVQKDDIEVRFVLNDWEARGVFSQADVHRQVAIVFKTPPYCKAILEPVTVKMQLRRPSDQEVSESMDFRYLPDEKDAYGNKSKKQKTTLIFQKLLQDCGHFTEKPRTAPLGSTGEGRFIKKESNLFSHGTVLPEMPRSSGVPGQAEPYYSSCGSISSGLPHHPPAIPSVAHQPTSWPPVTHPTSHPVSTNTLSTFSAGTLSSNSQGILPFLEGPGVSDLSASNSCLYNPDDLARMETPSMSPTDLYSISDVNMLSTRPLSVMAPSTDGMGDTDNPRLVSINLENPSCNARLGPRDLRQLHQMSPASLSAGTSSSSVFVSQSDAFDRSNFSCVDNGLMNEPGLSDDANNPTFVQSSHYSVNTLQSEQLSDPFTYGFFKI

Cc1cccc(/C=N/Nc2cc(N3CCOCC3)nc(OCCc3ccccn3)n2)c1 [Compound 50, N-(3-Methyl-benzylidene)-N′-[6-morpholin-4-yl-2-(2-pyridin-2-yl-ethoxy)-pyrimidin-4-yl]-hydrazine]
amount of IκBβ in the cytoplasm, with vs without compound (IκBβ): no significant difference | nuclear p65 levels (p65): unchanged | reduction in the levels of nuclear c-Rel (c-Rel [1]): 40-50% | levels of nuclear c-Rel (c-Rel [2]): reduced | kinetics of p65 nuclear entry (NF-κB p65): no effect | level of nuclear p65 relative to untreated cells (NF-κB p65; 6 hours): small increase
